Assay results reported in patent US7662767B2, “Polynucleotide intercalator interceptors and inhibitors” (Materials Evolution and Development USA, Inc., priority 2000, dated 2010).
Values joined by “and” are separate entries in the source; they are usually repeats but may differ in a detail not shown here. Equal entries are not always repeated.

How the values were obtained:
[1] = Optical titration (absorbance) of acridine orange with xanthines/purines, Kassoc from delta absorbance; type: binding; conditions: for Kassoc ± S.E.: binding affinity between acridine orange (10 μM) and compound, 5 mM HEPES pH 7.0, 25±1° C., 0 = no measurable association detected; for complex formation / binding affinity with AO: optical titration
Experimental: A red spectral shift in the optical adsorption maximum of AO upon the addition of a particular xanthine, indicates the possibility of a complex being formed between the two compounds. Spectral shifts can be measured by optical titrations.
Optical titrations (serial additions of various xanthines to a solution of AO) were performed on a Beckman DU-600 Scanning Spectrophotometer (Beckman Instrument Co., New York, N.Y.) using a 3 mL (1-cm light path) quartz cuvette containing 2.0 mL of a […]. The DU600 Spectrophotometer was blanked with 2 mL of a pH 7.0 buffered 5 mM HEPES solution over the full range of wavelengths to be scanned prior to sample analysis. This reduced the need to subtract the background absorbance from the HEPES buffer. Optical absorbance scans were performed over a wavelength range preferably from 400 nm to 550 nm. […] The 10 μM AO solution was scanned before the start of each titration series to quantitatively monitor any changes in the absorbance spectrum. Optical absorbance experiments were performed using aliquots varying in volume from 1:L to 20:L taken from prepared xanthine stock solutions (5 mM to 50 mM) and titrated into the cuvette containing 2.0 mL of the 10 μM AO solution. The solution in the cuvette was then thoroughly mixed by 10 seconds of shaking before scanning. All titrations were performed at room temperature (25±1° C.). The absorbance spectra were measured in 1 nm intervals and stored in digital form. Digitized scan data was converted to a Lotus Spreadsheet file (*.wk1) using a conversion program supplied by the manufacturer (Beckman Instruments Inc.) then imported into a Microsoft Excel 97™ Workbook file (*.xls) and saved in this format for further analysis. Spectral data for each titration was combined and expressed in graphic form (Excel™) (X-axis=wavelength in nm; Y-axis=optical absorbance) for each xanthine titrated with AO. […] Adjusted absorption values were plotted and compared to spectra from non-complexed AO. This allowed for the visualization of an expected spectral shift that occurs when AO forms a complex with a xanthine.
The association constant, Kassoc, may be used to analyze the binding ability of modified xanthines to DNA intercalators. The association constant may be calculated based upon a differential shift in the absorbance spectrum. When the presence of the xanthine caused a spectral shift, a difference absorbance plot or delta plot was obtained. Delta plots were constructed by subtracting the adjusted absorption spectrum of AO in the presence of the xanthine from the initial spectrum of AO alone at each wavelength and for each aliquot of the titration. This procedure allowed for the creation of difference absorption values or delta absorption values. Delta absorption values obtained in this manner (Y-axis=delta absorption) were plotted against wavelength in nm (X-axis). The appearance of a single isobestic point was indicative of only two species present in solution, AO, and an AO complex. Graphic representation allowed for the selection of a wavelength with the maximum sensitivity for determining the association constant. This wavelength was characterized by the greatest positive response in delta absorbance values observed upon addition of each aliquot of xanthine to the AO solution. The AO-xanthine association or binding constant was determined by the following equilibrium expression: I+X≡IX EQUATION 1: […]
Where I represents the intercalator (AO), X represents the interceptor molecule (xanthine), and IX represents the AO-xanthine complex, respectively.

[2] = tested on: chicken erythrocyte nuclear chromatin; assay: Blocking of acridine orange intercalation into chicken erythrocyte nuclear chromatin, fluorescence microscopy; design: key: 0: no blocking effect; 1: slight blocking; 2: moderate blocking; 3: almost total blocking (very slight green fluorescence detectable); 4: complete blockage (no green fluorescence detectable); conditions: 10 μM AO
Experimental: Microscope slides coated with chicken erythrocyte were stained with 10 μM AO at three separate areas on the microscope slide as described above. Slides were exposed to […] different xanthies at four different molar ratios for three different periods of time. The xanthines, theophylline, caffeine, 1,3,7,9-tetramethyl uric acid, and aminophylline, were prepared with 10 μM AO at molar ratios of 50:1, 500:1, 2500:1, 5000:1 xanthine to AO in distilled water. Microscope slides coated with chicken erythrocytes were exposed to a mixture of xanthine/AO at each molar ratio for periods of 10 min, 1 min, and 10 seconds under static (non-agitated) conditions. […] Following exposure to the xanthine/AO or to the DNA/AO solutions, the slides were rinsed in distilled water, allowed to dry at room temperature, examined by fluorescence microscopy, and the color of the nuclei recorded. Results were recorded as follows: 0=no blocking effect; 1=slight blocking; 2=moderate blocking; 3=almost total blocking (very slight green fluorescence detectable); 4=complete blockage (no green fluorescence detectable).
In the implementation shown in Table 4-2, the relative intensity of the green fluorescent color ([…]) utilizing a red blocking filter (≧600 nm) was used as the indicator of the intensity of staining. The molar ratio is expressed as the ratio of xanthine concentration to 10 μM AO. Results were recorded as follows: 0=no blocking effect; 1=slight blocking; 2=moderate blocking; 3=almost total blocking (very slight green fluorescence detectable); 4=complete blockage (no green fluorescence detectable). *Kassoc values for the xanthines are taken from Table 2-1 and the Kassoc values for DNA were taken from Table 3-2.

[3] = tested on: chicken erythrocyte nuclear chromatin; assay: Removal of acridine orange from stained chicken erythrocyte nuclear chromatin by xanthine rinse, fluorescence microscopy; conditions: for Nuclear color, Stain: before xanthine rinse; for Nuclear color, Re-stain: re-stained after xanthine rinse; for Nuclear color, After Rinse: xanthine rinse 50 mM, 1 hour, static
Experimental: Experiments were conducted to determine whether xanthines with known binding affinities to AO could compete with nuclear DNA for binding to AO and, therefore, be able to remove AO from its intercalation position within nuclear chromatin. Fluorescence microscopy was used to observe the fluorescent color produced by the AO-DNA complex following the staining of chicken erythrocyte nuclear chromatin with AO at both 5 μM and 5 mM.
Microscope slides smeared with chicken erythrocytes were stained with either 5 μM or 5 mM AO for a period of 30 minutes followed by three 10 second rinses in distilled water before drying at room temperature. Slides were then examined by fluorescence microscopy using a, Zeiss Model 63 Microscope with a xenon source fluorescent emitter. In some instances, a blocking filter was used to filter out fluorescence emission in the red and higher wavelengths. Photomicrographs were taken with Kodak Gold 35 mm ASA 1600 speed film, developed and color prints made. Comparative photomicrographs were taken at the same magnification and at the same exposure time. Selected photomicrographs were digitally scanned (Hewitt-Packard, Model 4L Scanner, Palo Alto, Calif.) and stored on 100 MB ZIP cartridges.
Slides were again examined by fluorescence microscopy and fluorescence color of the nuclei recorded. Slides were again stained with 5 mM AO then re-examined by fluorescence microscopy and fluorescence color of the nuclei recorded.
In the example shown in Table 4-3, the chicken erythrocytes were smeared and dried on a microscope slide prior to exposure to the AO solution for 30 minutes followed by water rinses to remove excess AO. Following drying, each slide was observed under fluorescence microscopy then placed in one of the xanthine solutions (50 ml volume) for 1 hour under static conditions, rinsed with water, then dried prior to being observed by fluorescence microscopy without a red blocking filter. Finally, each slide was restained following the initial staining procedures and again observed by fluorescence microscopy. Kassoc values are taken from Table 2-1 and are expressed in M^−1.

[4] = Table 2-2, Kassoc value with acridine orange (this report)

Cn1cnc2[nH]c(=O)[nH]c(=O)c21 [7-methyl xanthine]
Kassoc ± S.E. [1]: 0 M⁻¹ | complex formation / binding affinity with AO [1]: little or no affinity to complex with AO

Cn1c(=O)[nH]c2nc[nH]c2c1=O [1-methyl xanthine]
Kassoc [1, 4]: 79^a M^−1 | Kassoc ± S.E. [1]: 79.2 ± 2.0 M⁻¹ | complex formation / binding affinity with AO [1]: failed to exhibit any significant binding affinity for AO

c1ncc2[nH]cnc2n1 [Purine]
Kassoc ± S.E. [1]: ~2 M⁻¹

Cn1c(=O)[nH]c2[nH]c(=O)[nH]c(=O)c21 [7-methyl-8-oxy xanthine]
Kassoc ± S.E. [1]: 0 M⁻¹ | complex formation / binding affinity with AO [1]: little or no affinity to complex with AO

Cc1ncnc2nc[nH]c12 [6-methyl purine]
Kassoc ± S.E. [1]: 0 M⁻¹

Cn1c(=O)c2[nH]c(=O)[nH]c2n(C)c1=O [1,3-dimethyl-8-oxy xanthine]
Kassoc ± S.E. [1]: 38.5 M⁻¹ and 38.5 ± 2.2 M⁻¹ | complex formation / binding affinity with AO [1]: failed to exhibit any significant binding affinity for AO

Cn1c(=O)c2[nH]cnc2n(C)c1=O [1,3-dimethyl xanthine (theophylline), 1,3-dimethyl xanthine]
blocking of AO intercalation ([2]; Xanthine/AO molar ratio 5000:1, exposure 10 min): 0 | blocking of AO intercalation ([2]; molar ratio 50:1, exposure 10 sec): 0 | blocking of AO intercalation ([2]; molar ratio 50:1, exposure 1 min): 0 | blocking of AO intercalation ([2]; molar ratio 50:1, exposure 10 min): 0 | blocking of AO intercalation ([2]; molar ratio 500:1, exposure 10 sec): 0 | blocking of AO intercalation ([2]; molar ratio 500:1, exposure 1 min): 0 | blocking of AO intercalation ([2]; molar ratio 500:1, exposure 10 min): 0 | blocking of AO intercalation ([2]; molar ratio 2500:1, exposure 10 sec): 0 | blocking of AO intercalation ([2]; molar ratio 2500:1, exposure 1 min): 0 | blocking of AO intercalation ([2]; molar ratio 2500:1, exposure 10 min): 0 | blocking of AO intercalation ([2]; molar ratio 5000:1, exposure 10 sec): 0 | blocking of AO intercalation ([2]; molar ratio 5000:1, exposure 1 min): 0 | Nuclear color, Stain ([3]; AO [5 μM] 30 minutes): Green | Nuclear color, Re-stain ([3]; AO [5 μM]): Green | Nuclear color, After Rinse ([3]; AO [5 μM]): Green | Nuclear color, Stain ([3]; AO [5 mM] 30 minutes): Red | Nuclear color, Re-stain ([3]; AO [5 mM]): Red | Nuclear color, After Rinse ([3]; AO [5 mM]): Red | Kassoc [1, 4]: 157 M⁻¹ | Kassoc ([1]; Table 4-2, in parentheses under compound, taken from Table 2-1): (157) M^−1 | Kassoc ([1]; Table 4-3, taken from Table 2-1): 161 M⁻¹ | Kassoc ± S.E. [1]: 160.8 M⁻¹

Cn1cnc2ncnc-2c1N [1-methyl-6-amino purine]
Kassoc ± S.E. [1]: ~14 M⁻¹

Cn1c(=O)c2[nH]c(Cl)nc2n(C)c1=O [1,3-dimethyl-8-chloro xanthine]
Kassoc ± S.E. [1]: 412.5 ± 11.7 M⁻¹ | complex formation / binding affinity with AO [1]: failed to exhibit any significant binding affinity for AO

Cn1c(=O)[nH]c2[nH]c(=O)[nH]c2c1=O [1-methyl-8-oxy xanthine]
Kassoc ± S.E. [1]: 0 M⁻¹ | complex formation / binding affinity with AO [1]: failed to exhibit any significant binding affinity for AO

Cn1c(=O)[nH]c2ncn(C)c2c1=O [1,7-dimethyl xanthine]
Kassoc [1, 4]: 155 M⁻¹ | Kassoc ± S.E. [1]: 155.3 ± 3.1 M⁻¹

O=c1[nH]c(=O)c2[nH]c(=O)[nH]c2[nH]1 [uric acid (8-oxy xanthine), 8-oxy xanthine]
Kassoc ± S.E. [1]: 0 M⁻¹ | complex formation / binding affinity with AO [1]: did not complex with AO

COc1nc(N)nc2nc[nH]c12 [2-amino-6-methoxy purine]
Kassoc ± S.E. [1]: ~2 M⁻¹

Clc1ncnc2nc[nH]c12 [6-chloro purine]
Kassoc ± S.E. [1]: 0 M⁻¹

Cn1c(=O)[nH]c(=O)c2[nH]cnc21 [3-methyl xanthine]
complex formation / binding affinity with AO [1]: little or no affinity to complex with AO
